Measurements reported in ChEMBL document CHEMBL1145680, “Bioactive Norlignan Glucosides from Curculigo capitulata” (1997).
The source made the active and inactive calls. The rule behind the calls is not given here.

Assays:
[1] = test system: Heart; experiment: Antiarrhythmic activity against ouabain-induced arrhythmia in guinea pig right ventricle assessed as reversal of cardiac arrhythmia to normal rhythm at 3 uM; format: functional, tissue-based; conditions: Cavia porcellus
[2] = test system: Heart; experiment: Antiarrhythmic activity against ouabain-induced arrhythmia in guinea pig right ventricle assessed as reversal of cardiac arrhythmia to normal rhythm at 1 uM; format: functional, tissue-based; conditions: Cavia porcellus
[3] = test system: Heart; experiment: Antiarrhythmic activity against ouabain-induced arrhythmia in guinea pig right atria assessed as reversal of cardiac arrhythmia to normal rhythm at 10 uM; format: functional, tissue-based; conditions: Cavia porcellus
[4] = Effect on 2 Hz electrically driven contractile tension in WKY rat right ventricle at 30 uM relative to control; format: functional, Heart right ventricle
[5] = Effect on 2 Hz electrically driven contractile tension in WKY rat right ventricle at 10 uM relative to control; format: functional, Heart right ventricle
[6] = Effect on 2 Hz electrically driven contractile tension in WKY rat right ventricle at 3 uM relative to control; format: functional, Heart right ventricle
[7] = Effect on 2 Hz electrically driven contractile tension in WKY rat right ventricle at 1 uM relative to control; format: functional, Heart right ventricle
[8] = Effect on 2 Hz electrically driven contractile tension in WKY rat right ventricle at 0.3 uM relative to control; format: functional, Heart right ventricle
[9] = test system: Left cardiac atrium; experiment: Effect on 2 Hz electrically driven contractile tension in WKY rat left atria at 30 uM relative to control; format: functional
[10] = test system: Left cardiac atrium; experiment: Effect on 2 Hz electrically driven contractile tension in WKY rat left atria at 10 uM relative to control; format: functional
[11] = test system: Left cardiac atrium; experiment: Effect on 2 Hz electrically driven contractile tension in WKY rat left atria at 3 uM relative to control; format: functional
[12] = test system: Left cardiac atrium; experiment: Effect on 2 Hz electrically driven contractile tension in WKY rat left atria at 1 uM relative to control; format: functional
[13] = test system: Left cardiac atrium; experiment: Effect on 2 Hz electrically driven contractile tension in WKY rat left atria at 0.3 uM relative to control; format: functional
[14] = test system: Heart; experiment: Antiarrhythmic activity against ouabain-induced arrhythmia in guinea pig right ventricle assessed as reversal of cardiac arrhythmia to normal rhythm at 10 uM; format: functional, tissue-based; conditions: Cavia porcellus
[15] = test system: Right cardiac atrium; experiment: Effect on spontaneous contractile tension in WKY rat right atria at 1 uM relative to control
[16] = test system: Right cardiac atrium; experiment: Effect on spontaneous contractile tension in WKY rat right atria at 3 uM relative to control
[17] = test system: Right cardiac atrium; experiment: Effect on spontaneous contractile tension in WKY rat right atria at 10 uM relative to control
[18] = test system: Right cardiac atrium; experiment: Effect on spontaneous contractile tension in WKY rat right atria at 30 uM relative to control
[19] = test system: Heart; experiment: Effect on spontaneously beating heart rate in WKY rat right atria at 1 uM relative to control
[20] = test system: Heart; experiment: Effect on spontaneously beating heart rate in WKY rat right atria at 3 uM relative to control
[21] = test system: Heart; experiment: Effect on spontaneously beating heart rate in WKY rat right atria at 10 uM relative to control
[22] = test system: Heart; experiment: Effect on spontaneously beating heart rate in WKY rat right atria at 30 uM relative to control
[23] = test system: Right cardiac atrium; experiment: Effect on spontaneous contractile tension in WKY rat right atria at 0.3 uM relative to control
[24] = test system: Heart; experiment: Effect on spontaneously beating heart rate in WKY rat right atria at 0.3 uM relative to control
[25] = test system: Heart; experiment: Antiarrhythmic activity against ouabain-induced arrhythmia in guinea pig left atria assessed as reversal of cardiac arrhythmia to normal rhythm at 3 uM; format: functional, tissue-based; conditions: Cavia porcellus
[26] = test system: Heart; experiment: Antiarrhythmic activity against ouabain-induced arrhythmia in guinea pig left atria assessed as reversal of cardiac arrhythmia to normal rhythm at 1 uM; format: functional, tissue-based; conditions: Cavia porcellus
[27] = test system: Heart; experiment: Antiarrhythmic activity against ouabain-induced arrhythmia in guinea pig right atria assessed as reversal of cardiac arrhythmia to normal rhythm at 30 uM; format: functional, tissue-based; conditions: Cavia porcellus
[28] = test system: Heart; experiment: Antiarrhythmic activity against ouabain-induced arrhythmia in guinea pig right atria assessed as reversal of cardiac arrhythmia to normal rhythm at 3 uM; format: functional, tissue-based; conditions: Cavia porcellus
[29] = test system: Heart; experiment: Antiarrhythmic activity against ouabain-induced arrhythmia in guinea pig right atria assessed as reversal of cardiac arrhythmia to normal rhythm at 1 uM; format: functional, tissue-based; conditions: Cavia porcellus
[30] = test system: Heart; experiment: Antiarrhythmic activity against ouabain-induced arrhythmia in guinea pig right ventricle assessed as reversal of cardiac arrhythmia to normal rhythm at 30 uM; format: functional, tissue-based; conditions: Cavia porcellus

Row | SMILES | Activity [1] | Activity [2] | Activity [4] | Activity [5] | Activity [6] | Activity [7] | Activity [8] | Activity [9] | Activity [10] | Activity [11] | Activity [12] | Activity [15] | Activity [16] | Activity [17] | Activity [18] | Activity [19] | Activity [20] | Activity [21] | Activity [22] | Activity [24] | further results
1 | CCCCO[C@@H](c1ccc(O)c(O)c1)[C@H](CC#Cc1ccc(O)c(O)c1)O[C@@H]1O[C@H](CO)[C@@H](O)[C@H](O)[C@H]1O | inactive | inactive | 92.2% | 96.8% | 100.4% | 100% | 102% | 103.8% | 105% | 101.1% | 95.3% | 94.3% | 91.6% | 87.8% | 86.4% | 99% | 98.4% | 98.4% | 97.4% | 100% | Activity [3]: inactive; Activity [13]: 98.8%; Activity [14]: inactive; Activity [23]: 95.5%
2 | CCCCO[C@H](c1ccc(O)c(O)c1)[C@H](CC#Cc1ccc(O)c(O)c1)O[C@@H]1O[C@H](CO)[C@@H](O)[C@H](O)[C@H]1O |  | inactive | 88.2% | 95.4% | 96.8% | 95.8% | 99% | 92.5% | 89.4% | 91.2% | 96% | 91% | 89.6% | 86.2% | 83.6% | 100% | 99% | 99.8% | 97.6% | 100% | Activity [25]: Active; Activity [13]: 98.8%; Activity [23]: 94%
3 | OC[C@H]1O[C@@H](O[C@@H](CC#Cc2ccc(O)c(O)c2)[C@H](O)c2ccc(O)c(O)c2)[C@H](O)[C@@H](O)[C@@H]1O [NYASICOSIDE] | inactive | inactive | 74.6% | 78.2% | 83.6% | 84.8% | 92.3% | 98% | 100.3% | 104.5% | 105.8% | 94.5% | 92% | 83.3% | 78% | 98.8% | 97.4% | 98.5% | 98.5% | 100% | Activity [25]: Active; Activity [26]: inactive; Activity [13]: 108.3%; Activity [23]: 96.8%
4 | CO[C@H](c1ccc(O)c(O)c1)[C@H](CC#Cc1ccc(O)c(O)c1)O[C@@H]1O[C@H](CO)[C@@H](O)[C@H](O)[C@H]1O |  | inactive | 99.3% | 104.3% | 106.3% | 106.7% |  | 89.7% | 102.3% | 101.3% | 103% | 99% | 99% | 100.3% | 101.7% | 100% | 103% | 103% | 103% |  | Activity [25]: inactive
5 | OC[C@H]1O[C@@H](O[C@@H](CC#Cc2ccc(O)cc2)[C@H](O)c2ccc(O)c(O)c2)[C@H](O)[C@@H](O)[C@@H]1O | inactive | inactive | 94.2% | 95.2% | 99.2% | 98.4% |  | 116.3% | 119.3% | 111.5% | 106.8% | 97.5% | 98.3% | 94.5% | 94.8% | 97.5% | 97.5% | 98.5% | 98.5% | 100% | Activity [27]: inactive; Activity [3]: inactive; Activity [28]: inactive; Activity [29]: inactive; Activity [14]: inactive; Activity [30]: inactive
